Data taken from the NIST ThermoML archive (doi:10.1021/je300775u).

Test: xn = mol fraction of the nth substance listed
Conditions: 101 kPa, Liquid; for speed of sound: Pulse-echo method; for mass density: Vibrating tube method

ClC(Cl)(Cl)Br [bromotrichloromethane] + CCCCCCC
Conditions	mass density, 293.15 K [kg/m3]	mass density, 298.15 K [kg/m3]	mass density, 303.15 K [kg/m3]	mass density, 308.15 K [kg/m3]	mass density, 313.15 K [kg/m3]	speed of sound, 293.15 K [m/s]	speed of sound, 298.15 K [m/s]	speed of sound, 303.15 K [m/s]	speed of sound, 308.15 K [m/s]	speed of sound, 313.15 K [m/s]
x1 = 0.0527	731.54	727.03	722.5	717.94	713.35	1126.6	1105.8	1085.1	1064.5	1044
x1 = 0.1116	786.88	782.07	777.25	772.39	767.5	1100.3	1080.2	1060.4	1040.5	1020.7
x1 = 0.152	826.09	821.09	816.04	810.96	805.84	1083.8	1064.4	1044.9	1025.3	1005.8
x1 = 0.2038	878.08	872.78	867.43	862.07	856.67	1064.1	1045.2	1026	1007	988.3
x1 = 0.2512	927.29	921.75	916.16	910.53	904.88	1047.4	1028.9	1010.4	992	973.6
x1 = 0.2988	978.53	972.69	966.84	960.93	955.01	1031.9	1013.7	995.8	977.7	959.8
x1 = 0.3556	1041.97	1035.81	1029.61	1023.38	1017.12	1015	997.3	979.7	962.2	944.8
x1 = 0.4027	1096.65	1090.21	1083.75	1077.23	1070.68	1001.9	984.7	967.5	950.4	933.3
x1 = 0.4603	1166.3	1159.5	1152.66	1145.8	1138.9	987.5	970.6	953.9	937.2	920.7
x1 = 0.4989	1214.82	1207.8	1200.71	1193.57	1186.41	978.4	962	945.5	929.2	912.9
x1 = 0.5537	1286.16	1278.76	1271.34	1263.88	1256.37	966.7	950.6	934.7	918.8	902.9
x1 = 0.5961	1343.68	1336	1328.29	1320.53	1312.74	958.4	942.8	927.1	911.3	895.9
x1 = 0.6562	1428.79	1420.68	1412.54	1404.37	1396.16	948	932.8	917.4	902.2	887.1
x1 = 0.7088	1506.86	1498.38	1489.86	1481.3	1472.71	940.1	925.2	910.3	895.4	880.6
x1 = 0.7486	1568.29	1559.53	1550.71	1541.85	1532.96	934.8	920	905.3	890.7	876.2
x1 = 0.8001	1651.09	1641.91	1632.7	1623.44	1614.16	929	914.5	900.1	885.8	871.5
x1 = 0.8456	1727.53	1717.98	1708.38	1698.77	1689.12	924.6	910.4	896.2	882.2	868.2
x1 = 0.899	1821.57	1811.56	1801.52	1791.47	1781.35	920.6	906.7	892.8	879	865.3
x1 = 0.9521	1919.55	1909.09	1898.58	1888.06	1877.49	918	904.4	890.7	877.2	863.7
x1 = 1	2013.06	2002.14	1991.2	1980.24	1969.25	917.1	903.6	890.2	876.8	863.6
